Data set [1] in a line: enteral absorbability, serum concentration after oral administration to mice. In kind it is in vivo. The conditions noted are these: mouse, 50 mg/kg orally, fasted male ICR mice; for concentration at 0.5 h: 30 min. The method, then: Using male ICR mice fasted overnight (weighing 20±1 g), the enteral absorbability of some typical examples of the present compounds [I] was tested. This test was carried out by administering 50 mg/kg of each test compound orally to mice and determining its serum concentration 30 minutes, 1 hour, 2 hours and 4 hours after administration. Five mice were used for each test point. At each test point, whole blood was collected from the mice by cardiac puncture and used to prepare serum samples. Concentrations of the test compounds in serum samples were determined by the paper disc method using Escherichia coli CI-304 as the test microorganism.
For purposes of comparison, the enteral absorbability of ofloxacin and OPC-7241 was tested in the same manner as described above and the results thus obtained are also shown in Table 2.

The subject of data set [2] is Klebsiella pneumoniae PCI 602. Put plainly: minimal inhibitory concentration, in vitro antibacterial activity. In kind it is cell-based. To be noted: PCI602, 37° C., 20 hours. Here is the method:
(§1) The in vitro antibacterial activities of typical examples of the present compounds [I] were evaluated in terms of the minimal inhibitory concentration defined as the lowest concentration of the compound preventing the bacterial growth. The Gram-positive bacteria used as test microorganisms included Bacillus subtilis, Staphylococcus aureus and Streptococcus faecalis, and the Gram-negative bacteria used as test microorganisms included Escherichia coli, Enterobacter cloacae, Klebsiella pneumoniae, Proteus vulgaris, Pseudomonas aeruginosa, Serratia marcescens and Salmonella enteritidis. The minimal inhibitory concentration (cultured at 37° C. for 20 hours) was determined according to the standard method prescribed by the Japan Society of Chemotherapy (CHEMOTHERAPY, Vol. 29, No. 1, p. 76, 1981). The following compounds were used as typical examples of the present compounds [I]. At the end of the chemical name of each compound, its tentative designation is given in Parentheses.
(§2) For purposes of comparison, the in vitro antibacterial activities of ofloxacin, OPC-7241 and compound α were evaluated according to the same method as described above and the test results thus obtained are also shown in Table 1.

The subject of data set [3] is Pseudomonas aeruginosa NCTC 10490. Described as above. The conditions noted are these: NCTC10490, 37° C., 20 hours. It is filed as cell-based. Here is the method:
as §1, §2

In data set [4] the test system is Salmonella enteritidis G14. Described as above. It is filed as cell-based. To be noted: Salmonella enterica, 37° C., 20 hours. The method, then: as §1, §2
The subject of data set [5] is Serratia marcescens IAM 1184. Described as above. It is filed as cell-based. The conditions noted are these: IAM1184, 37° C., 20 hours. The method, then: as §1, §2
Data set [6] relates to Enterobacter cloacae 963. Described as above. It is filed as cell-based. The conditions noted are these: 37° C., 20 hours. Here is the method: as §1, §2
In data set [7] the test system is Escherichia coli NIHJ JC-2. The description is as above. It is filed as cell-based. To be noted: NIHJJC2, 37° C., 20 hours. The method, then: as §1, §2
Data set [8] concerns Bacillus subtilis ATCC 6633. Described as above. In kind it is cell-based. To be noted: ATCC6633, 37° C., 20 hours. Here is the method: as §1, §2
Data set [9] relates to Streptococcus faecalis AHU 1085. Described as above. In kind it is cell-based. The conditions noted are these: Enterococcus faecalis, AHU1085, 37° C., 20 hours. The method, then: as §1, §2
In data set [10] the test system is Escherichia coli CI-304. The description is as above. In kind it is cell-based. To be noted: CI304, 37° C., 20 hours. The method, then:
as §1, §2

The subject of data set [11] is Staphylococcus aureus FDA 209P JC-1. Described as above. In kind it is cell-based. The conditions noted are these: FDA209P, 37° C., 20 hours. Here is the method: as §1, §2
In data set [12] the test system is Proteus vulgaris ATCC 13315. The description is as above. In kind it is cell-based. To be noted: ATCC13315, 37° C., 20 hours. Here is the method:
as §1, §2

SMILES strings stand for the structures. Converted amounts (≈) assume the structure as drawn.

Usually MIC stands for the lowest concentration found to suppress growth. The low end stands for greater potency, the high end for weaker potency.

Turning to `CCN1CCN(c2c(Cl)cc3c(=O)c(C(=O)O)cn4c3c2C(=O)CC4C)CC1` (stereo not shown) [Compound 9, 9-Chloro-5-methyl-8-(4-ethyl-1-piperazinyl) -6,7-dihydro-1,7-dioxo-1H, 5H-benzo[ij]quinolizine-2-carboxylic acid], the concentration at 0.5 h in data set [1] was 20200 ng/mL. In [1], this compound returned a concentration at 1 h of 15900 ng/mL. The concentration at 2 h in data set [1] was 7700 ng/mL. In addition, the concentration at 4 h in data set [1] is 4500 ng/mL. In addition, the MIC in [2] amounted to 0.1 µg/mL (≈ 0.248 µM); in [3] it was 0.78 µg/mL (≈ 1.93 µM); in [4] it was 0.78 µg/mL (≈ 1.93 µM); in data set [5] it was 3.13 µg/mL (≈ 7.75 µM); in [6], 0.2 µg/mL (≈ 0.495 µM); in data set [7], 0.2 µg/mL (≈ 0.495 µM). For the same compound, the MIC came out at 0.2 µg/mL (≈ 0.495 µM) in data set [8]; 1.56 µg/mL (≈ 3.86 µM) in data set [9]; 0.1 µg/mL (≈ 0.248 µM) in data set [10]; 0.39 µg/mL (≈ 0.966 µM) in data set [11]; 0.2 µg/mL (≈ 0.495 µM) in data set [12].
With `CC1CN(c2c(F)cc3c(=O)c(C(=O)O)cn4c3c2C(=O)CC4C)CC(C)N1` (stereo not shown) [Compound 11, 9-Fluoro-5-methyl-8-(3,5-dimethyl-1-piperazinyl) -6,7-dihydro-1,7-dioxo-1H, 5H-benzo[ij]quinolizine-2-carboxylic acid], the concentration at 0.5 h in data set [1] was 20800 ng/mL. The concentration at 1 h in [1] came to 15800 ng/mL. Besides, the concentration at 2 h in [1] is 7200 ng/mL. This compound also showed a concentration at 4 h in data set [1] of 5300 ng/mL. In addition, the MIC in data set [2] stood at 0.1 µg/mL (≈ 0.258 µM); in data set [3] it was 1.56 µg/mL (≈ 4.03 µM); in [4] it was 0.78 µg/mL (≈ 2.01 µM); in [5], 3.13 µg/mL (≈ 8.08 µM); in data set [6], 0.2 µg/mL (≈ 0.516 µM); in [7], 0.2 µg/mL (≈ 0.516 µM). Moreover, the MIC in data set [8] is 0.1 µg/mL (≈ 0.258 µM); in [9] it was 3.13 µg/mL (≈ 8.08 µM); in data set [10], 0.1 µg/mL (≈ 0.258 µM); in data set [11], 0.78 µg/mL (≈ 2.01 µM); in data set [12], 0.39 µg/mL (≈ 1.01 µM).
On to `CC1C=Cc2c(N3CCN(C)CC3)c(F)cc3c(=O)c(C(=O)O)cn1c23` (stereo not shown) [Compound 19, 9-Fluoro-5-methyl-8-(4-methyl-1-piperazinyl) -1-oxo-1H, 5H-benzo[ij]quinolizine-2-carboxylic acid], for which the MIC in [2] came to 0.1 µg/mL (≈ 0.28 µM); in data set [3], 0.78 µg/mL (≈ 2.18 µM); in data set [4] it was 0.78 µg/mL (≈ 2.18 µM); in [5] it was 1.56 µg/mL (≈ 4.37 µM); in [6], 0.78 µg/mL (≈ 2.18 µM); in data set [7], 0.39 µg/mL (≈ 1.09 µM). Also, the minimal inhibitory concentration (MIC) in data set [8] was found to be 0.1 µg/mL (≈ 0.28 µM); in data set [9], 1.56 µg/mL (≈ 4.37 µM); in data set [10], 0.2 µg/mL (≈ 0.56 µM); in [11], 0.39 µg/mL (≈ 1.09 µM); in data set [12] it was 0.1 µg/mL (≈ 0.28 µM).
For `CC1C=Cc2c(N3CCNCC3)c(Cl)cc3c(=O)c(C(=O)O)cn1c23` (stereo not shown) [Compound 22, 9-Chloro-5-methyl-8-(1-piperazinyl) -1-oxo-1H, 5H-benzo[ij]quinolizine-2-carboxylic acid], the MIC in data set [2] is 0.1 µg/mL (≈ 0.278 µM); in data set [3], 0.78 µg/mL (≈ 2.17 µM); in data set [4], 0.78 µg/mL (≈ 2.17 µM); in [5] it was 0.78 µg/mL (≈ 2.17 µM); in [6], 0.2 µg/mL (≈ 0.556 µM); in data set [7] it was 0.2 µg/mL (≈ 0.556 µM). Further, the MIC in data set [8] was determined as 0.1 µg/mL (≈ 0.278 µM); in data set [9], 0.78 µg/mL (≈ 2.17 µM); in data set [10] it was 0.1 µg/mL (≈ 0.278 µM); in [11], 0.2 µg/mL (≈ 0.556 µM); in [12], 0.1 µg/mL (≈ 0.278 µM).
Take `CC1C=Cc2c(N3CCN(C)CC3)c(Cl)cc3c(=O)c(C(=O)O)cn1c23` (stereo not shown) [Compound 24, 9-Chloro-5-methyl-8-(4-methyl-1-piperazinyl)-1-oxo-1H,5H-benzo[ij]quinolizine-2-carboxylic acid]: the MIC came out at 0.1 µg/mL (≈ 0.267 µM) in data set [2]; 1.56 µg/mL (≈ 4.17 µM) in data set [3]; 1.56 µg/mL (≈ 4.17 µM) in data set [4]; 1.56 µg/mL (≈ 4.17 µM) in [5]; 0.2 µg/mL (≈ 0.535 µM) in data set [6]; 0.39 µg/mL (≈ 1.04 µM) in [7]. The MIC was 0.2 µg/mL (≈ 0.535 µM) in data set [8]; 0.78 µg/mL (≈ 2.09 µM) in data set [9]; 0.2 µg/mL (≈ 0.535 µM) in data set [10]; 0.2 µg/mL (≈ 0.535 µM) in data set [11]; 0.1 µg/mL (≈ 0.267 µM) in [12].
`CC1CN(c2c(Cl)cc3c(=O)c(C(=O)O)cn4c3c2C=CC4C)CCN1` (stereo not shown) [Compound 31, 9-Chloro-5-methyl-8-(3-methyl-1-piperazinyl) -1-oxo-1H, 5H-benzo[ij]quinolizine-2-carboxylic acid] gave a concentration at 0.5 h in data set [1] of 13800 ng/mL. Besides, the concentration at 1 h in data set [1] stood at 12700 ng/mL. The same compound displayed a concentration at 2 h in [1] of 8400 ng/mL. The compound also had a concentration at 4 h in data set [1] of 5000 ng/mL. Besides, the MIC in data set [2] came out at 0.1 µg/mL (≈ 0.267 µM); in data set [3] it was 1.56 µg/mL (≈ 4.17 µM); in data set [4], 1.56 µg/mL (≈ 4.17 µM); in [5], 1.56 µg/mL (≈ 4.17 µM); in data set [6] it was 0.2 µg/mL (≈ 0.535 µM); in data set [7] it was 0.1 µg/mL (≈ 0.267 µM). The MIC in data set [8] worked out at 0.2 µg/mL (≈ 0.535 µM); in data set [9], 0.78 µg/mL (≈ 2.09 µM); in data set [10] it was 0.2 µg/mL (≈ 0.535 µM); in [11], 0.2 µg/mL (≈ 0.535 µM); in [12] it was 0.1 µg/mL (≈ 0.267 µM).
Turning to `CC1CC(=O)c2c(N3CCN(C)CC3)c(F)cc3c(=O)c(C(=O)O)cn1c23.Cl.O` (stereo not shown) [Compound 35, 9-Fluoro-5-methyl-8-(4-methyl-1-piperazinyl) -6,7-dihydro-1,7-dioxo-1H, 5H-benzo[ij]quinolizine-2-carboxylic acid hydrochloride monohydrate], in [1], the concentration at 0.5 h was 24500 ng/mL. In [1], this compound gave a concentration at 1 h of 22000 ng/mL. This compound also gave a concentration at 2 h in data set [1] of 11800 ng/mL. In addition, in [1], the concentration at 4 h came to 8500 ng/mL. Also, the MIC in data set [2] worked out at 0.1 µg/mL; in data set [3], 0.78 µg/mL; in data set [4], 0.78 µg/mL; in data set [5], 1.56 µg/mL; in data set [6], 0.2 µg/mL; in data set [7], 0.2 µg/mL. For the same compound, the MIC in data set [8] came to 0.1 µg/mL; in data set [9] it was 0.78 µg/mL; in [10], 0.1 µg/mL; in [11] it was 0.39 µg/mL; in data set [12], 0.2 µg/mL.
Consider `CC1C=Cc2c(N3CCN(C)CC3)c(F)cc3c(=O)c(C(=O)O)cn1c23.Cl` (stereo not shown) [Compound 37, 9-Fluoro-5-methyl-8-(4-methyl-1-piperazinyl) -1-oxo-1H, 5H-benzo[ij]quinolizine-2-carboxylic acid hydrochloride], for which the MIC in data set [2] was 0.1 µg/mL; in data set [3] it was 0.78 µg/mL; in [4], 0.78 µg/mL; in [5] it was 1.56 µg/mL; in data set [6] it was 0.78 µg/mL; in [7], 0.39 µg/mL. For the same compound, the MIC was 0.1 µg/mL in data set [8]; 1.56 µg/mL in data set [9]; 0.2 µg/mL in data set [10]; 0.39 µg/mL in data set [11]; 0.1 µg/mL in data set [12].
As to `CC1CN(c2c(F)cc3c(=O)c(C(=O)O)cn4c3c2C(=O)CC4C)CC(C)N1C.Cl.O` (stereo not shown) [Compound 39, 9-Fluoro-5-methyl-8-(3,4,5-trimethyl-1-piperazinyl) -6,7-dihydro-1,7-dioxo-1H, 5H-benzo[ij]quinolizine-2-carboxylic acid hydrochloride monohydrate], the MIC in [2] is 0.1 µg/mL; in data set [3] it was 3.13 µg/mL; in data set [4], 0.78 µg/mL; in [5] it was 1.56 µg/mL; in [6], 0.39 µg/mL; in data set [7], 0.39 µg/mL. Also, the minimal inhibitory concentration (MIC) was 0.2 µg/mL in data set [8]; 0.78 µg/mL in [9]; 0.2 µg/mL in data set [10]; 0.39 µg/mL in data set [11]; 0.2 µg/mL in data set [12].
